From patent US20260234188A1, “CHEMOKINE-BINDING PEPTIDES” (Oxford University Innovation Limited, priority 2022, published 2026)
pIC50: −log10 of the molar value. Entries after “also recorded” stand apart in the source; their conditions may differ. Ends that are not written are not given here.

Experiments:
[1] = system: panel of up to 42 human chemokines; assay: Phage-display next generation sequencing screen of overlapping hexadecapeptide libraries, chemokines displayed on streptavidin beads; type: binding; settings: log2E greater than 5, chemokines named by first part of UniProt Entry Name, peptides binding complement C5a (control) excluded;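 also: chemokine listed when log2 fold enrichment exceeds 5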
How it was run: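 Phage-display libraries of 55662 overlapping hexadecapeptides from tick and viral chemokine-binding proteins, human chemokines and chemokine receptors screened against up to 42 human chemokines, with hits found by next-generation sequencing. Peptides mapped to parent-protein position with log2 fold enrichment; regions of interest where cumulative residue log2 E exceeds the 95% upper CI of the protein median.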

CCL8 = biological target: T1, CCL8 (Homo sapiens, UniProt P80075); assay: cell-based; settings: for inhibition of cell migration: peptide 10 μM, chemokine at EC80, versus scrambled control HD2SCR
T1 construct: purchased Peprotech
T1 sequence (P80075 24-99): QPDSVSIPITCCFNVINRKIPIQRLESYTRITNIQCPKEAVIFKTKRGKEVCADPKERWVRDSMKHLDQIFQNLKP
Experimental: (§1) FIG. 2. […] BK1.2 is described in (Darlot, 2020). […] Chemokines used are indicated by the name, followed in parenthesis by the supplier code (P in supplier code indicates Peprotech). […] All experiments were performed at EC80 doses of indicated chemokine. Data are shown as box-whisker plots of three technical and three biological replicates. Statistically significant differences (compared to control, indicated by #), using Dunnett's test with correction for multiple comparisons, are indicated by asterisks: ****=P≤0.0001, ***=P≤0.001, **=P≤0.01, *=P≤0.05.
FIG. 3. […] Chemokines used are indicated by the name, followed in parenthesis by the supplier code (P in supplier code indicates Peprotech). […] All experiments were performed at EC80 doses of indicated chemokine.
(§2) Briefly, cell migration assays use THP1 cells (human monocyte) and primary human buffy coat white cells (consisting of neutrophil granulocytes, monocytes, and lymphocytes), and activated T-cells. THP1 cells and primary monocytes respond to CCL2, CCL3, CCL5, CCL8 and CXCL4, granulocytes to CXCL1 and CXCL8, activated T-cells to CXCL9/10/11. Assays are performed in 96-well Boyden chambers, and migrated cells counted and characterized using and ATTUNE Flow Cytometer as described. Triplicate assays are performed at the EC80 dose of each chemokine at 10 μM peptide concentration.
The J:CXCR1 cell line was generated by transfecting Jurkat cells by electroporation with PvuI-linearized plasmid D1398 and selecting with blasticidin (Sigma-Aldrich, Cat #203350, […]). […] J:CXCR1 cells were cultured in RPMI-1640 media (Gibco), supplemented with 10% FBS and 5 mM L-Glutamine with blasticidin. For J:CXCR1 migration assays, 300,000 cells/well were added to the top chamber of a 3 μm Transwell insert (Corning) in 50 μL of migration media (RPMI-1640, 0.5% FBS, 4 mM L-Glutamine, 0.05% DMSO). The bottom chamber contained 150 μL of chemokine, with or without peptide. Cells were migrated at 37° C. in 5% CO2 for 4 hours. […]

[2] = system: panel of 24 biotinylated chemokines; assay: Phage-display screen of HD2 NNK saturation mutagenesis library; type: binding, human; settings: for Chemokines Bound log2E 1-5 / Chemokines Bound log2E > 5: HD2 saturation mutants, chemokines on streptavidin beads, UniProt entry names
Source text: (§3) FIG. 7. Exemplar results from phage display screens using saturation mutagenesis. A phage-display library was constructed using the HD2 sequence, replacing each residue encoding codon with the degenerate sequence NNK. The 16 degenerate sequences (which also encoded the parental HD2 sequence) were pooled and cloned into display phage. […] Exemplar peptides were selected such that log 2 E for at least one chemokine was greater than 5, and log 2 E for binding to control (CO5, was less than zero). […] The fold enrichment of parental HD2 is also indicated.
as §3, with “A” for “FIG. 7. Exemplar results from phage display screens using saturation mutagenesis. A”
A molecular level understanding of binding mechanism is needed for development of peptides as therapeutics and is usually obtained from structural analyses. As HD2 binds many chemokines this becomes a challenging task, and we explored if we could elucidate this using phage display mutagenesis. The role of each residue in HD2 for binding was examined in phage-display. A library of HD2 mutations that had NNK substituted at each residue and performed phage-display selection against a panel of 24 biotinylated chemokines, in parallel, as described in Example 7. This strategy allowed us to evaluate the impact not only of Ala substitutions, but also conservative, hydrophilic and hydrophobic substitutions, and compare with binding of parental HD2 which is also included in the library. Ala substitution removes side-chains beyond the β-carbon and can be used to infer the role of side-chain functional groups without affecting conformational flexibility of the backbone. […] These residues are within the two motifs identified previously. Other notable residues identified were Y8 and P10. We next judged the impact of Ala mutation by calculating the change in log 2 E (Δlog 2 E) between the mutant and parental HD2. A positive value of Δlog 2 E indicates increased binding, and a negative value decreased binding compared to parental HD2. […] As may be seen, the log 2 E for the parental HD2 was ~0 in these analyses indicating lack of enrichment.
Oligonucleotide pools were amplified using primers: oligo_fwd: 5′-[…] and oligo_rev2: 5′-tcgtcaccctcggcgcctcctcoggatcctccacc. Oligonucleotide PCR products were cloned into plasmid prSTOP4Nsi using NEB Builder HiFi Assembly following instructions of the manufacturer. The vector pool was used to transform electrocompetent Invitrogen ElectroMAX™ DH5α-E™ cells. Plasmid DNA was harvested by MaxiPrep (GeneJet Plasmid Maxiprep Kit) and was transformed into SS320 phage display electrocompetent cells (Lucigen), following the manufacturer's protocol, resuspended in 950 μL recovery media for each electroporation, transferred to 50 mL Falcon tubes, 100 μL 1011 CFU/mL M13KO7 helper phage (NEB) added and shaken at 37° C., 220 RPM for 1 h. 1 mL recovery culture was added to 2YT medium containing +50 ug/mL carbenicillin and 25 ug/mL kanamycin, and grown overnight at 37C, 220 rpm. Phage was precipitated from the culture supernatant by adding 22.5 mL of supernatant to 4.5 mL 20% PEG 8000/2.5 M NaCl, incubating on ice for 30 min, and centrifuging at 10,000 RPM, 4° C. for 10 min, and resuspending phage in 1 ml of PBT, followed by centrifugation at 13000 RPM, 4° C., for 10 min. […]

CC and CXC chemokines = assay: Chemokine-induced cell migration assays, pooled over chemokines (meta-analysis); type: cell-based, human; settings: single HD2 mutations; nine CC and six CXC chemokines
Experimental: FIG. 16. Effect of HD2 alanine mutations on chemotaxis. […] All experiments were performed as three technical and three biological replicates, and individual data points are indicated, and coloured by the chemokine used. Statistically significant differences (compared to control, coloured blue), using Dunnett's test with correction for multiple comparisons, are indicated by asterisks: ****=P≤0.0001, ***=P≤0.001, **=P≤0.01, *=P≤[…] observations per group (three technical and three biological replicates for each chemokine). FIG. 16B, Faceted plots of change in median normalised cell count between alanine mutant and wild-type HD2 peptide obtained in cell migration assays (Y-axis, Δmedian normalised cell count) versus alanine mutated residue (X-axis). Chemokines used for each experiment are indicated in the strip to the right of each plot. Statistically significant differences compared to parental HD2 are shown as red dots. […] Scatterplot of Δmedian normalised cell count (Y-axis, obtained in cell migration assays) versus Δlog 2 E (obtained in phage-display experiments) for peptide:chemokine pairs. Individual data points indicate peptide chemokine pairs for which both cell migration and Δlog 2 E were available. Linear regression plot with 95% confidence interval, Spearman correlation coefficient (R) and statistical significance (p) are shown.
FIG. 19. […] All experiments were performed as at least three technical and three biological replicates, and individual data points are indicated, and coloured by the chemokine used, for all chemokines studied (n=16 chemokines). Statistically significant differences (compared to control, coloured blue), using Dunnett's test with correction for multiple comparisons, are indicated by asterisks: ****=P≤0.0001, ***=P≤0.001, **=P≤0.01, *=P≤0.05.
as §2
The J:CXCR1 cell line was generated by transfecting Jurkat cells by electroporation with PvuI-linearized plasmid D1398 and selecting with blasticidin (Sigma-Aldrich, Cat #203350, […]). […] J:CXCR1 cells were cultured in RPMI-1640 media (Gibco), supplemented with 10% FBS and 5 mM L-Glutamine with blasticidin. For J:CXCR1 migration assays, 300,000 cells/well were added to the top chamber of a 3 μm Transwell insert (Corning) in 50 μL of migration media (RPMI-1640, 0.5% FBS, 4 mM L-Glutamine, 0.05% DMSO). The bottom chamber contained 150 μL of chemokine, with or without peptide. Cells were migrated at 37° C. in 5% CO2 for 4 hours. The plate was incubated on a shaking platform for 10 minutes, 800 rpm, at 37° C., and 150 μL from the bottom of the plate transferred into a U-bottom plate containing 50 μL of migration media.

CXCL9 = biological target: T2, CXCL9 (Homo sapiens, UniProt Q07325); assay: CXCL9-induced activated T-cell migration, transwell assay; type: cell-based; settings: HD2 mutant peptides 10 μM, chemokine at EC80
T2 construct: purchased Peprotech
T2 sequence (Q07325 23-125): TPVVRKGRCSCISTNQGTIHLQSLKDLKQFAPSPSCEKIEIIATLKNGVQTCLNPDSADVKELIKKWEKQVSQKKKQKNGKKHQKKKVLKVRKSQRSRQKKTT
Experimental: as §1, §2
(§4) The J:CXCR1 cell line was generated by transfecting Jurkat cells by electroporation with PvuI-linearized plasmid D1398 and selecting with blasticidin (Sigma-Aldrich, Cat #203350, […]). […] J:CXCR1 cells were cultured in RPMI-1640 media (Gibco), supplemented with 10% FBS and 5 mM L-Glutamine with blasticidin. For J:CXCR1 migration assays, 300,000 cells/well were added to the top chamber of a 3 μm Transwell insert (Corning) in 50 μL of migration media (RPMI-1640, 0.5% FBS, 4 mM L-Glutamine, 0.05% DMSO). The bottom chamber contained 150 μL of chemokine, with or without peptide. Cells were migrated at 37° C. in 5% CO2 for 4 hours. The plate was incubated on a shaking platform for 10 minutes, 800 rpm, at 37° C., and 150 μL from the bottom of the plate transferred into a U-bottom plate containing 50 μL of migration media. Cell counts were determined by Attune NxT Flow Cytometer Plate Reader (ThermoFisher), based on cell size parameters FSC-H/SSC-H. Experiments were performed in 3 technical and 3 biological replicates. THP-1 migration assays were carried out using methods known in the art. Activated T-cell assays were carried out using methods known in the art, with the following modifications in the isolation process. Peripheral blood cells were obtained from leucocyte cones (NHS Blood Transfusion Services), following which, T-cells were isolated using two rounds of human CD8+ T-cell isolation kit (480011, BioLegend). At day 10 after activation, T-cells were frozen at 20 E6 cells/ml in TexMACS medium supplemented with 10% DMSO (D2650, Sigma) in liquid nitrogen. Prior to use, activated T-cells were recovered for 24 hours in TexMACs medium at 0.3 E6 cells/ml and incubated at 37° C. in 5% CO2. Chemokine sources are described in Supplementary information Table 3. Statistical significances between control experimental groups was evaluated using Dunnett's test. IC50 experiments were performed at the EC80 dose of chemokine. EC80 was calculated by fitting a chemokine dose-response curve with 3 parameters (fixing the top to 100%). IC50 was calculated by fitting an inhibitor response curve with 4 parameters.

CCL21 = biological target: T3, CCL21 (Homo sapiens, UniProt O00585); assay: CCL21-induced cell migration assay; type: cell-based; settings: HD2 mutant peptides 10 μM, chemokine at EC80
T3 sequence (O00585 24-134): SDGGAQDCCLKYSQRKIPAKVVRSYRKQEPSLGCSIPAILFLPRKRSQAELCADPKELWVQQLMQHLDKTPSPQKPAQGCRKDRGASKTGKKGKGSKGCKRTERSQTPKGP
Experimental: FIGS. 24 and 25. Effect of exemplar mutant HD2 peptides on chemotaxis. Box-whisker plots showing the effect of the exemplar mutant HD2 peptides on cell migration induced by indicated human chemokines. All experiments were performed as at least three technical and between one to three biological replicates, and individual data points are indicated. […] Chemokine and cell type names are indicated. HD2SCR is a scrambled version of HD2 used as negative control. All peptides were at 10 μM final concentration and chemokines at EC80 doses. Statistically significant differences (compared to control, coloured blue), using Dunnett's test with correction for multiple comparisons, are indicated by asterisks: ****=P≤0.0001, ***=P≤0.001, **=P≤0.01, *=P≤0.05.
as §4
(§5) Migration assays using THP1, activated T-cell (ATC) and J:CXCR1 (Jurkat cells stably transfected with CXCR1 receptor) were performed as described previously. IC50 experiments were performed at the EC80 dose of chemokine. EC80 was calculated by fitting a chemokine dose-response curve with 3 parameters (fixing the top to 100%). IC50 was calculated by fitting an inhibitor response curve with 4 parameters. R-packages used were ggupset_0.3.0, DescTools_0.99.44, and drc_3.0-1.

CXCL6 = biological target: T4, CXCL6 (Homo sapiens, UniProt P80162); assay: cell-based; settings: value in parentheses restating the molar figure
T4 sequence (P80162 38-114): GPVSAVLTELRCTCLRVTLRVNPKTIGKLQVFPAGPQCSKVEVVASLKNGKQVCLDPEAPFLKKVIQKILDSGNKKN
Experimental: FIG. 11. […] Technical replicates are shown as individual data points. […] The response curve (solid blue line) and its 95% confidence interval (grey ribbon) were calculated using a 4-parameter log-logistic plot.
as §4, §5

Substance	Chemokines Bound [1]	inhibition of cell migration (CCL8)	Chemokines Bound log2E 1-5 [2]	Chemokines Bound log2E > 5 [2]	mean log 2 E compared to parental HD2 ([2]; over CC chemokines)	mean log 2 E compared to parental HD2 ([2]; over all chemokines)	also measured
DEDYEDFFKPVTCYFA [HD540]	CCL18, CCL22,; also recorded: CCL5, CCL8	inhibition	–	–	–	–	–
EEDDYDAYAPLTCYFT [HD2_D6]	–	–	CCL15, CCL17, CCL18, CCL19,; also recorded: CCL22, CCL28, CCL3, CCL4,; also recorded: CCL5, CCL8, X3CL1, CXL10,; also recorded: CXL11, CXL14, IL8	CCL1, CCL11,; also recorded: CCL2, SDF1,; also recorded: CXL13	significant improvement	significant improvement	chemotaxis inhibition compared with HD2, meta-analysis (CC and CXC chemokines): did not improve chemotaxis in any assay
EEDDYTAYAPITCYFT [HD2_I11]	–	–	CCL1, CCL11, CCL17, CCL18,; also recorded: CCL19, CCL2, CCL22, CCL28,; also recorded: CCL3, CCL4, CCL5, CCL8, X3CL1,; also recorded: CXL10, CXL11, SDF1, CXL13, IL8	CCL15	significant improvement	significant improvement	chemotaxis compared with the parental HD2 peptide (CXCL9): significant reduction in chemotaxis; chemotaxis compared with the parental HD2 peptide (CCL21): significant reduction in chemotaxis
EEDDYTAYAPLTCYFT-NH2 [HD2, EEDDYTAYAPLTCYFT]	–	–	–	–	–	–	pIC50 (CCL8; value in parentheses restating the molar figure): 7.82; pIC50 (CXCL6): 3.85
EDEDYEDFFKPVTCYF [HD845]	CCL18, CCL22,; also recorded: CCL5, CCL8	inhibition	–	–	–	–	–
